Assay results taken from patent US20020137929A1, “1 - (3-heterocyclylphenyl) isothiourea, -isourea, -guanidine and -amidine herbicidal agents” (Intellectual Property Department, BASF Aktiengesellschaft, priority 1998, published 2002).

Columns and labels:
ABUTH (Velvetleaf) = assay: Preemergence herbicidal evaluation; format: in vivo, Abutilon theophrasti; conditions: rated 4-5 weeks after treatment; for ABUTH rating: preemergence, 0-9 scale
Outline: (§1)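 Herbicidal effect scored visually, 0-9, at 4 to 5 weeks against a control; compound applied preemergence by aqueous acetone spray to seeded soil at about 0.0156 to 0.500 kg/ha.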

AMBEL (Ragweed, Common) = assay: Postemergence herbicidal evaluation; format: in vivo, Ambrosia artemisifolia; conditions: postemergence
Outline: (§2)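 Two-week-old seedlings sprayed with compound in 50/50 acetone/water plus 0.5% TWEEN 20, at about 0.0156 to 0.500 kg/ha, nozzle at 40 psi. Kept in greenhouse; rated visually 4-5 weeks after treatment on a 0-9 scale versus control, repeat tests averaged.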

CASOB (Sicklepod) [1] = assay: Preemergence herbicidal evaluation; format: in vivo, Cassia obtusifolia; conditions: rated 4-5 weeks after treatment; for CASOB rating: preemergence, 0-9 scale
Outline: as §1

CYPIR (Rice Flatsedge) = assay: Postemergence weed control under flooded paddy conditions; format: in vivo, Cyperus iria; conditions: postemergence weeds, rated 3 to 4 weeks after treatment
Outline: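 Injury ratings (0–9 scale covering stand, vigor, malformation, size, chlorosis and overall appearance versus control) were made three to four weeks after treatment. Test material, about 0.0313 to 0.500 kg/ha a.i. in 50/50 v/v aqueous/acetone, was added to flood water 1.5 to 3 cm deep over 3 to 5 cm weeds and 1.5 to 2.5 leaf rice.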

[2] = test system: TRZAWR (Wheat, Winter, cv Riband); assay: Preemergence herbicidal evaluation; format: in vivo, Triticum aestivum; conditions: rated 4-5 weeks after treatment; for TRZAWR rating: preemergence, 0-9 scale
Outline: as §1

[3] = test system: IPOHE (Morningglory, Ivyleaf); assay: Postemergence herbicidal evaluation; format: in vivo, Ipomoea hederacea; conditions: postemergence
Outline: as §2

[4] = test system: GLXMAW (Soybean, Williams); assay: Preemergence herbicidal evaluation; format: in vivo, Glycine max, (L.) Merr. cv Williams; conditions: rated 4-5 weeks after treatment; for GLXMAW rating: preemergence, 0-9 scale
Outline: as §1

GALAP (Galium) = assay: Postemergence herbicidal evaluation; format: in vivo, Galium aparine; conditions: postemergence
Outline: as §2

ZEAMX (Corn, Field) = assay: Preemergence herbicidal evaluation; format: in vivo, Zea mays; conditions: rated 4-5 weeks after treatment; for ZEAMX rating: preemergence, 0-9 scale
Outline: as §1

ECHCG (Barnyardgrass) = assay: Preemergence herbicidal evaluation; format: in vivo, Echinochloa crus-galli; conditions: rated 4-5 weeks after treatment; for ECHCG rating: preemergence, 0-9 scale
Outline: as §1

[5] = test system: IPOHE (Morningglory, Ivyleaf); assay: Preemergence herbicidal evaluation; format: in vivo, Ipomoea hederacea; conditions: rated 4-5 weeks after treatment; for IPOHE rating: preemergence, 0-9 scale
Outline: as §1

CASOB (Sicklepod) [6] = assay: Postemergence herbicidal evaluation; format: in vivo, Cassia obtusifolia; conditions: postemergence
Outline: as §2

MOOVA (Monochoria) = assay: Preemergence weed control under flooded paddy conditions; format: in vivo, Monochoria vaginalis; conditions: rated 3-4 weeks after treatment
Outline: (§3)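 Seeds or propagules sown in top 0.5 cm of silt loam soil, flooded 1.5 to 3 cm above surface throughout. Compound in 50/50 v/v aqueous/acetone pipetted into flood water at about 0.0313 to 0.500 kg/ha. Visual 0-9 rating versus control after three to four weeks in greenhouse.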

[7] = test system: SAGPY (Arrowhead (Pygmaea)); assay: as above; format: in vivo, Sagittaria pygmaea; conditions: rated 3-4 weeks after treatment
Outline: as §3

CN1C(=O)C(CC(=O)NS(C)(=O)=O)SC1=Nc1cc(-n2c(=O)cc(C(F)(F)F)n(C)c2=O)c(F)cc1Cl (stereo not shown) [Compound 97, 2-{{2-Chloro-5-[3,6-dihydro-3-methyl-2,6-dioxo-4-(trifluoromethyl)-1(2H)-pyrimidinyl]-4-fluorophenyl}imino}-3-methyl-N-(methylsulfonyl)-4-oxo-5-thiazolidineacetamide]
ABUTH rating (ABUTH (Velvetleaf); 0.1250 kg/ha): 4.0
ABUTH rating (ABUTH (Velvetleaf); 0.2500 kg/ha): 9.0
ABUTH rating (ABUTH (Velvetleaf); 0.5000 kg/ha): 9.0
AMBEL herbicidal rating (AMBEL (Ragweed, Common); rate 0.0156 kg/ha): 0.0
AMBEL herbicidal rating (AMBEL (Ragweed, Common); rate 0.0313 kg/ha): 1.0
AMBEL herbicidal rating (AMBEL (Ragweed, Common); rate 0.0625 kg/ha): 4.0
AMBEL herbicidal rating (AMBEL (Ragweed, Common); rate 0.1250 kg/ha): 7.0
CASOB rating (CASOB (Sicklepod) [1]; 0.1250 kg/ha): 0.0
CASOB rating (CASOB (Sicklepod) [1]; 0.2500 kg/ha): 1.0
CASOB rating (CASOB (Sicklepod) [1]; 0.5000 kg/ha): 3.0
Herbicidal rating CYPIR (CYPIR (Rice Flatsedge); Rate 0.0313 kg/ha): 0.0
Herbicidal rating CYPIR (CYPIR (Rice Flatsedge); Rate 0.0625 kg/ha): 0.0
Herbicidal rating CYPIR (CYPIR (Rice Flatsedge); Rate 0.1250 kg/ha): 3.0
Herbicidal rating CYPIR (CYPIR (Rice Flatsedge); Rate 0.2500 kg/ha): 4.0
TRZAWR rating ([2]; 0.1250 kg/ha): 0.0
TRZAWR rating ([2]; 0.2500 kg/ha): 1.0
TRZAWR rating ([2]; 0.5000 kg/ha): 2.0
IPOHE herbicidal rating ([3]; rate 0.0156 kg/ha): 7.0
IPOHE herbicidal rating ([3]; rate 0.0313 kg/ha): 9.0
IPOHE herbicidal rating ([3]; rate 0.0625 kg/ha): 9.0
IPOHE herbicidal rating ([3]; rate 0.1250 kg/ha): 9.0
GLXMAW rating ([4]; 0.1250 kg/ha): 0.0
GLXMAW rating ([4]; 0.2500 kg/ha): 0.0
GLXMAW rating ([4]; 0.5000 kg/ha): 3.0
GALAP herbicidal rating (GALAP (Galium); rate 0.0156 kg/ha): 0.0
GALAP herbicidal rating (GALAP (Galium); rate 0.0313 kg/ha): 0.0
GALAP herbicidal rating (GALAP (Galium); rate 0.0625 kg/ha): 1.0
GALAP herbicidal rating (GALAP (Galium); rate 0.1250 kg/ha): 1.0
ZEAMX rating (ZEAMX (Corn, Field); 0.1250 kg/ha): 0.0
ZEAMX rating (ZEAMX (Corn, Field); 0.2500 kg/ha): 0.0
ZEAMX rating (ZEAMX (Corn, Field); 0.5000 kg/ha): 4.0
ECHCG rating (ECHCG (Barnyardgrass); 0.1250 kg/ha): 0.0
ECHCG rating (ECHCG (Barnyardgrass); 0.2500 kg/ha): 0.0
ECHCG rating (ECHCG (Barnyardgrass); 0.5000 kg/ha): 0.0
IPOHE rating ([5]; 0.1250 kg/ha): 1.0
IPOHE rating ([5]; 0.2500 kg/ha): 9.0
IPOHE rating ([5]; 0.5000 kg/ha): 9.0
CASOB herbicidal rating (CASOB (Sicklepod) [6]; rate 0.0156 kg/ha): 0.0
CASOB herbicidal rating (CASOB (Sicklepod) [6]; rate 0.0313 kg/ha): 0.0
CASOB herbicidal rating (CASOB (Sicklepod) [6]; rate 0.0625 kg/ha): 0.0
CASOB herbicidal rating (CASOB (Sicklepod) [6]; rate 0.1250 kg/ha): 1.0
MOOVA herbicidal effect rating (MOOVA (Monochoria); 0.0313 kg/ha): 9.0
MOOVA herbicidal effect rating (MOOVA (Monochoria); 0.0625 kg/ha): 9.0
MOOVA herbicidal effect rating (MOOVA (Monochoria); 0.1250 kg/ha): 9.0
MOOVA herbicidal effect rating (MOOVA (Monochoria); 0.2500 kg/ha): 9.0

CCOC(=O)[C@H](C)N1C(=O)CSC1=Nc1cc(-n2c(=O)cc(C(F)(F)F)n(C)c2=O)c(F)cc1Cl [Compound 76, Ethyl 2-{{2-chloro-5-[3,6-dihydro-3-methyl-2,6-dioxo-4-(trifluoromethyl)-1(2H)-pyrimidinyl]-4-fluorophenyl}imino}-α-methyl-4-oxo-3-thiazolidineacetate, L-]
Preemergence herbicidal rating ABUTH (ABUTH (Velvetleaf); rate 0.0156 kg/ha): 1.0
Preemergence herbicidal rating ABUTH (ABUTH (Velvetleaf); rate 0.0313 kg/ha): 1.0
Preemergence herbicidal rating ABUTH (ABUTH (Velvetleaf); rate 0.0625 kg/ha): 9.0
Preemergence herbicidal rating ABUTH (ABUTH (Velvetleaf); rate 0.1250 kg/ha): 9.0
Preemergence herbicidal rating ABUTH (ABUTH (Velvetleaf); rate 0.2500 kg/ha): 9.0
AMBEL herbicidal rating (AMBEL (Ragweed, Common); rate 0.0158 kg/ha): 9.0
AMBEL herbicidal rating (AMBEL (Ragweed, Common); rate 0.0315 kg/ha): 9.0
AMBEL herbicidal rating (AMBEL (Ragweed, Common); rate 0.0630 kg/ha): 9.0
Preemergence herbicidal rating CASOB (CASOB (Sicklepod) [1]; rate 0.0156 kg/ha): 0.0
Preemergence herbicidal rating CASOB (CASOB (Sicklepod) [1]; rate 0.0313 kg/ha): 0.0
Preemergence herbicidal rating CASOB (CASOB (Sicklepod) [1]; rate 0.0625 kg/ha): 0.0
Preemergence herbicidal rating CASOB (CASOB (Sicklepod) [1]; rate 0.1250 kg/ha): 0.0
Preemergence herbicidal rating CASOB (CASOB (Sicklepod) [1]; rate 0.2500 kg/ha): 1.0
Herbicidal rating CYPIR (CYPIR (Rice Flatsedge); Rate 0.0313 kg/ha): 0.0
Herbicidal rating CYPIR (CYPIR (Rice Flatsedge); Rate 0.0625 kg/ha): 0.0
Herbicidal rating CYPIR (CYPIR (Rice Flatsedge); Rate 0.1250 kg/ha): 0.0
Herbicidal rating CYPIR (CYPIR (Rice Flatsedge); Rate 0.2500 kg/ha): 6.0
Preemergence herbicidal rating TRZAWR ([2]; rate 0.0156 kg/ha): 0.0
Preemergence herbicidal rating TRZAWR ([2]; rate 0.0313 kg/ha): 0.0
Preemergence herbicidal rating TRZAWR ([2]; rate 0.0625 kg/ha): 3.0
Preemergence herbicidal rating TRZAWR ([2]; rate 0.1250 kg/ha): 7.0
Preemergence herbicidal rating TRZAWR ([2]; rate 0.2500 kg/ha): 9.0
IPOHE herbicidal rating ([3]; rate 0.0158 kg/ha): 9.0
IPOHE herbicidal rating ([3]; rate 0.0315 kg/ha): 9.0
IPOHE herbicidal rating ([3]; rate 0.0630 kg/ha): 9.0
Preemergence herbicidal rating GLXMAW ([4]; rate 0.0156 kg/ha): 0.0
Preemergence herbicidal rating GLXMAW ([4]; rate 0.0313 kg/ha): 0.0
Preemergence herbicidal rating GLXMAW ([4]; rate 0.0625 kg/ha): 3.0
Preemergence herbicidal rating GLXMAW ([4]; rate 0.1250 kg/ha): 6.0
Preemergence herbicidal rating GLXMAW ([4]; rate 0.2500 kg/ha): 9.0
GALAP herbicidal rating (GALAP (Galium); rate 0.0158 kg/ha): 1.0
GALAP herbicidal rating (GALAP (Galium); rate 0.0315 kg/ha): 6.0
GALAP herbicidal rating (GALAP (Galium); rate 0.0630 kg/ha): 7.0
SAGPY herbicidal effect rating ([7]; 0.0313 kg/ha): 0.0
SAGPY herbicidal effect rating ([7]; 0.0625 kg/ha): 0.0
SAGPY herbicidal effect rating ([7]; 0.1250 kg/ha): 4.0
SAGPY herbicidal effect rating ([7]; 0.2500 kg/ha): 4.0
Preemergence herbicidal rating ZEAMX (ZEAMX (Corn, Field); rate 0.0156 kg/ha): 0.0
Preemergence herbicidal rating ZEAMX (ZEAMX (Corn, Field); rate 0.0313 kg/ha): 1.0
Preemergence herbicidal rating ZEAMX (ZEAMX (Corn, Field); rate 0.0625 kg/ha): 5.0
Preemergence herbicidal rating ZEAMX (ZEAMX (Corn, Field); rate 0.1250 kg/ha): 7.0
Preemergence herbicidal rating ZEAMX (ZEAMX (Corn, Field); rate 0.2500 kg/ha): 7.0
Preemergence herbicidal rating ECHCG (ECHCG (Barnyardgrass); rate 0.0156 kg/ha): 0.0
Preemergence herbicidal rating ECHCG (ECHCG (Barnyardgrass); rate 0.0313 kg/ha): 0.0
Preemergence herbicidal rating ECHCG (ECHCG (Barnyardgrass); rate 0.0625 kg/ha): 1.0
Preemergence herbicidal rating ECHCG (ECHCG (Barnyardgrass); rate 0.1250 kg/ha): 7.0
Preemergence herbicidal rating ECHCG (ECHCG (Barnyardgrass); rate 0.2500 kg/ha): 9.0
Preemergence herbicidal rating IPOHE ([5]; rate 0.0156 kg/ha): 0.0
Preemergence herbicidal rating IPOHE ([5]; rate 0.0313 kg/ha): 0.0
Preemergence herbicidal rating IPOHE ([5]; rate 0.0625 kg/ha): 0.0
Preemergence herbicidal rating IPOHE ([5]; rate 0.1250 kg/ha): 9.0
Preemergence herbicidal rating IPOHE ([5]; rate 0.2500 kg/ha): 9.0
CASOB herbicidal rating (CASOB (Sicklepod) [6]; rate 0.0158 kg/ha): 1.0
CASOB herbicidal rating (CASOB (Sicklepod) [6]; rate 0.0315 kg/ha): 4.0
CASOB herbicidal rating (CASOB (Sicklepod) [6]; rate 0.0630 kg/ha): 5.0
